Measurements from patent publication US8114602B2 (priority 2003, dated 2012).
“And” between values parts separate entries of the source, which are not always exact repeats. Equal entries are not always repeated. “Also recorded” adds a separate entry of the source.

Legend:
GTIB [1] = assay type: binding, bovine
GM1 [2] = assay type: binding, bovine; design: Ei (effective interaction energy): unit not given here
[3] = tested on: membranes free of GM1 and GTIB; assay type: binding
GM1 [4] = assay type: binding, bovine; conditions: read-out: effective dissociation constant
GTIB [5] = assay type: binding, bovine; conditions: read-out: effective dissociation constant

Substance | Ei (effective interaction energy) (GTIB [1]) | colloidal phase response (condensed to dispersed transition) (GTIB [1]) | Ei (effective interaction energy) (GM1 [2]) | colloidal phase response (condensed to dispersed transition) (GM1 [2]) | Ei (effective interaction energy) [3] | detection signal / binding in selectivity series [3] | Kd (GM1 [4]) | detection signal / binding in selectivity series (GM1 [2]) | first peak in the g(r) plot (GM1 [2]) | Kd (GTIB [5]) | detection signal / binding in selectivity series (GTIB [1]) | first peak in the g(r) plot (GTIB [1])
α-Bungarotoxin [BT] | 2.71 ± 0.08 | no effect | 2.84 ± 0.02 | no effect | 2.67 ± 0.10 | Negative signals |  |  |  |  |  | 
Cholera Toxin B-subunit [CTB] | 2.47 ± 0.09 | without producing any effect; also recorded: no effect | 0.56 ± 0.12 | triggered the transition to a dispersed phase; also recorded: induces the transition | 2.52 ± 0.09 | Negative signals; also recorded: absence of binding | ~41 nM and ~60 nM | positive signal; also recorded: detected binding | noticeably absent |  |  | 
tetanus toxin [TT] |  | triggered formation of a dispersed phase; also recorded: induces a condensed to dispersed phase transition | 2.63 ± 0.05 | no effect | 2.61 ± 0.05 | Negative signals |  | Negative signals |  | ~60 nM and ~41 nM | positive signal; also recorded: detected binding | noticeably absent
